USRE47493E1, “Substituted bicyclic dihydropyrimidinones and their use as inhibitors of neutrophil elastase activity” (Boehringer Ingelheim International GmbH, priority 2014, dated 2019)
Like-named read-outs stand apart in the source and are kept apart here.

Biological target: Human neutrophil elastase (Homo sapiens (Human), UniProt P08246)
Assay: Human Neutrophil Elastase Assay
Type: biochemical
Procedure: Human Neutrophil Elastase Assay
Materials: Human neutrophil elastase was purchased from Calbiochem (Cat.No.: 324681) and the elastase substrate MeOSuc-Ala-Ala-Pro-Val-AMC from Bachem (Cat.No.: I-1270). All other materials were of the highest grade commercially available.
The following buffers were used: Compound buffer: 100 mM Tris, 500 mM NaCl, adjusted to pH 7.5; Assay buffer: 100 mM Tris, 500 mM NaCl, adjusted to pH 7.5, containing 0.01% BSA.
Assay conditions: Test compounds were prediluted in DMSO and subsequently in compound buffer (5% DMSO final). 5 μL of these compound dilutions were mixed with 10 μl Neutrophil elastase (9 ng/ml in assay buffer) in a black 384 well OptiPlate (Perkin Elmer, Cat No.: 6007270) and incubated for 15 min at room temperature. Subsequently 10 μL substrate solution in assay buffer were added (250 nM final concentration) and the plates were incubated for 60 min at room temperature. After inactivation of the enzyme, fluorescence intensities were measured at 380 nm excitation and 460 nm emission wavelengths.
Each plate contains wells with a high value control (DMSO+enzyme+substrate) and wells with a low value control (DMSO+inactivated enzyme+substrate). IC50 values were estimated using a sigmoidal concentration response curve with variable slope. Means of low values were taken as 0%, means of high values as 100%.

[1] = human neutrophil elastase, substrate MeOSuc-Ala-Ala-Pro-Val-AMC, pH 7.5, read-out: IC50

Human neutrophil elastase, sequence (P08246 30-267): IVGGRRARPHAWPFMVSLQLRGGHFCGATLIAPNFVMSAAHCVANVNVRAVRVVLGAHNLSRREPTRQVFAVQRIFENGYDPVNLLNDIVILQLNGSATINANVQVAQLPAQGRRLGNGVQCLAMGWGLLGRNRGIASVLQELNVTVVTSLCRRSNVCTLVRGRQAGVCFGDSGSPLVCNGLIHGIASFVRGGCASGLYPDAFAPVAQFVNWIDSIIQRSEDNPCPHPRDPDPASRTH

SMILES | IC50 [1] | IC50 (read-out: IC50, inhibition of neutrophil elastase)
N#Cc1ccc(C2NC(=O)N(c3cccc(C(F)(F)F)c3)C3=C2C(=O)CCC3)cc1 (racemic) [Example 1, 4-(2,5-Dioxo-1-(3-(trifluoromethyl)phenyl)-1,2,3,4,5,6,7,8-octahydroquinazolin-4-yl)-benzonitrile] | 28.5 nM | –
CS(=O)(=O)c1cc(C#N)ccc1C1NC(=O)N(c2cccc(C(F)(F)F)c2)C2=C1C(=O)CCC2 (racemic) [Example 18, 4-(2,5-Dioxo-1-(3-(trifluoromethyl)phenyl)-1,2,3,4,5,6,7,8-octahydroquinazolin-4-yl)-3-(methylsulfonyl)benzonitrile] | 8.5 nM | –
CS(=O)(=O)c1cc(C#N)ccc1C1NC(=O)N(c2cccc(C(F)F)c2)C2=C1C(=O)CCC2 (racemic) [Example 19, 4-(1-(3-(Difluoromethyl)phenyl)-2,5-dioxo-1,2,3,4,5,6,7,8-octahydroquinazolin-4-yl)-3-(methylsulfonyl)benzonitrile] | 10.7 nM | –
CN1C(=O)N(c2cccc(C(F)(F)F)c2)C2=C(C(=O)CCC2)C1c1ccc(C#N)cc1 (racemic) [Example 20, 4-(1-(3-(Trifluoromethyl)phenyl)-3-methyl-2,5-dioxo-1,2,3,4,5,6,7,8-octahydroquinazolin-4-yl)benzonitrile] | 7.3 nM | –
COC(=O)CN1C(=O)N(c2cccc(C(F)(F)F)c2)C2=C(C(=O)CCC2)C1c1ccc(C#N)cc1 (racemic) [Example 31, Methyl 2-(4-(4-Cyanophenyl)-2,5-dioxo-1-(3-(trifluoromethyl)phenyl)-1,2,5,6,7,8-hexahydroquinazolin-3(4H)-yl)acetate] | 18.4 nM | –
CCS(=O)(=O)c1cc(C#N)ccc1[C@@H]1NC(=O)N(c2cccc(C(F)(F)F)c2)C2=C1C(=O)CCC2 (single isomer, unassigned) [Example 54B] | 1870 nM | –
N#Cc1ccc([C@H]2NC(=O)N(c3cccc(C(F)(F)F)c3)C3=C2C(=O)CCC3)cc1 [Example 1A, (R)-4-(2,5-Dioxo-1-(3-(trifluoromethyl)phenyl)-1,2,3,4,5,6,7,8-octahydroquinazolin-4-yl)benzonitrile] | 9.5 nM | –
N#Cc1ccc([C@@H]2NC(=O)N(c3cccc(C(F)(F)F)c3)C3=C2C(=O)CCC3)cc1 [Example 1B, (S)-4-(2,5-Dioxo-1-(3-(trifluoromethyl)phenyl)-1,2,3,4,5,6,7,8-octahydroquinazolin-4-yl)benzonitrile] | 6560 nM | –
CS(=O)(=O)c1cc(C#N)ccc1[C@@H]1NC(=O)N(c2cccc(C(F)(F)F)c2)C2=C1C(=O)CCC2 [Example 18B, (R)-4-(2,5-Dioxo-1-(3-(trifluoromethyl)phenyl)-1,2,3,4,5,6,7,8-octahydroquinazolin-4-yl)-3-(methylsulfonyl)benzonitrile] | 2510 nM | 2510 nM
CS(=O)(=O)c1cc(C#N)ccc1[C@@H]1NC(=O)N(c2cccc(C(F)F)c2)C2=C1C(=O)CCC2 [Example 19B, (R)-4-(1-(3-(Difluoromethyl)phenyl)-2,5-dioxo-1,2,3,4,5,6,7,8-octahydroquinazolin-4-yl)-3-(methylsulfonyl)benzonitrile] | 1660 nM | –
CN1C(=O)N(c2cccc(C(F)(F)F)c2)C2=C(C(=O)CCC2)[C@H]1c1ccc(C#N)cc1 [Example 20A, (R)-4-(1-(3-(Trifluoromethyl)phenyl)-3-methyl-2,5-dioxo-1,2,3,4,5,6,7,8-octahydroquinazolin-4-yl)benzonitrile] | 2.2 nM | –
CN1C(=O)N(c2cccc(C(F)(F)F)c2)C2=C(C(=O)CCC2)[C@@H]1c1ccc(C#N)cc1 [Example 20B, (S)-4-(1-(3-(Trifluoromethyl)phenyl)-3-methyl-2,5-dioxo-1,2,3,4,5,6,7,8-octahydroquinazolin-4-yl)benzonitrile] | 1340 nM | –
COC(=O)CN1C(=O)N(c2cccc(C(F)(F)F)c2)C2=C(C(=O)CCC2)[C@H]1c1ccc(C#N)cc1 [Example 31A, (R)-Methyl 2-(4-(4-Cyanophenyl)-2,5-dioxo-1-(3-(trifluoromethyl)phenyl)-1,2,5,6,7,8-hexahydroquinazolin-3(4H)-yl)acetate] | 7.6 nM | –
COC(=O)CN1C(=O)N(c2cccc(C(F)(F)F)c2)C2=C(C(=O)CCC2)[C@@H]1c1ccc(C#N)cc1 [Example 31B, (S)-Methyl 2-(4-(4-Cyanophenyl)-2,5-dioxo-1-(3-(trifluoromethyl)phenyl)-1,2,5,6,7,8-hexahydroquinazolin-3(4H)-yl)acetate] | 7020 nM | –
CN(C)C(=O)CN1C(=O)N(c2cccc(C(F)(F)F)c2)C2=C(C(=O)CCC2)[C@H]1c1ccc(C#N)cc1 [Example 34A, (R)-2-(4-(4-Cyanophenyl)-2,5-dioxo-1-(3-(trifluoromethyl)phenyl)-1,2,5,6,7,8-hexahydroquinazolin-3(4H)-yl)-N,N-dimethylacetamide] | 1.5 nM | –
CN(C)C(=O)CN1C(=O)N(c2cccc(C(F)(F)F)c2)C2=C(C(=O)CCC2)[C@@H]1c1ccc(C#N)cc1 [Example 34B, (S)-2-(4-(4-Cyanophenyl)-2,5-dioxo-1-(3-(trifluoromethyl)phenyl)-1,2,5,6,7,8-hexahydroquinazolin-3(4H)-yl)-N,N-dimethylacetamide] | 570 nM | –
Cn1ncc2c1CN(C(=O)CN1C(=O)N(c3cccc(C(F)(F)F)c3)C3=C(C(=O)CCC3)[C@H]1c1ccc(C#N)cc1)C2 [Example 35A, (R)-4-(3-(2-(1-Methylpyrrolo[3,4-c]pyrazol-5(1H,4H,6H)-yl)-2-oxoethyl)-2,5-dioxo-1-(3-(trifluoromethyl)phenyl)-1,2,3,4,5,6,7,8-octahydroquinazolin-4-yl)benzonitrile] | < 1 nM | –
Cn1ncc2c1CN(C(=O)CN1C(=O)N(c3cccc(C(F)(F)F)c3)C3=C(C(=O)CCC3)[C@@H]1c1ccc(C#N)cc1)C2 [Example 35B, (S)-4-(3-(2-(1-Methylpyrrolo[3,4-c]pyrazol-5(1H,4H,6H)-yl)-2-oxoethyl)-2,5-dioxo-1-(3-(trifluoromethyl)phenyl)-1,2,3,4,5,6,7,8-octahydroquinazolin-4-yl)benzonitrile] | 26.8 nM | –

SMILES | IC50 [1] | IC50 (read-out: IC50, inhibition of neutrophil elastase)
N#Cc1ccc(C2C3=C(CCCC3=O)N(c3cccc(C(F)(F)F)c3)C(=O)N2CC(=O)N2CCN3CCCC3C2)cc1 (stereo not shown) [Example 36.56] | 5 nM | –
CN1C[C@@H](NC(=O)CN2C(=O)N(c3cccc(C(F)(F)F)c3)C3=C(C(=O)CCC3)C2c2ccc(C#N)cc2)CCC1=O (stereo partly shown) [Example 36.61] | 12.7 nM | –
N#Cc1ccc(C2C3=C(CCCC3=O)N(c3cccc(C(F)(F)F)c3)C(=O)N2CC(=O)NCCN2CCNC2=O)cc1 (stereo not shown) [Example 36.62] | 8.2 nM | –
CNC(=O)N1C(=O)N(c2cccc(C(F)(F)F)c2)C2=C(C(=O)CCC2)[C@@H]1c1ccc(C#N)cc1S(C)(=O)=O [Example 47B, (R)-4-(4-Cyano-2-(methylsulfonyl)phenyl)-N-methyl-2,5-dioxo-1-(3-(trifluoromethyl)-phenyl)-1,2,5,6,7,8-hexahydroquinazoline-3(4H)-carboxamide] | 94 nM | –
CS(=O)(=O)c1cc(C#N)ccc1C1C2=C(CCCC2=O)N(c2cccc(C(F)(F)F)c2)C(=O)N1CC(F)F (stereo not shown) [Example 58.3] | 3.1 nM | –
COCCCN1C(=O)N(c2cccc(C(F)(F)F)c2)C2=C(C(=O)CCC2)C1c1ccc(C#N)cc1S(C)(=O)=O (stereo not shown) [Example 58.4] | 11.3 nM | –
CS(=O)(=O)c1cc(C#N)ccc1C1C2=C(CCCC2=O)N(c2cccc(C(F)(F)F)c2)C(=O)N1CC(=O)N1CCC1 (stereo not shown) [Example 62.1] | < 1 nM | –
CS(=O)(=O)c1cc(C#N)ccc1C1C2=C(CCCC2=O)N(c2cccc(C(F)(F)F)c2)C(=O)N1CC(=O)N1CCCC1 (stereo not shown) [Example 62.2] | < 1 nM | –
CN(CCO)C(=O)CN1C(=O)N(c2cccc(C(F)(F)F)c2)C2=C(C(=O)CCC2)C1c1ccc(C#N)cc1S(C)(=O)=O (stereo not shown) [Example 62.3] | 1.3 nM | –
CS(=O)(=O)c1cc(C#N)ccc1C1C2=C(CCCC2=O)N(c2cccc(C(F)(F)F)c2)C(=O)N1CC(=O)N1CC2CC2C1 (stereo not shown) [Example 62.4] | < 1 nM | –
CS(=O)(=O)c1cc(C#N)ccc1C1C2=C(CCCC2=O)N(c2cccc(C(F)(F)F)c2)C(=O)N1CC(=O)N1CCC(F)C1 (stereo not shown) [Example 62.6] | < 1 nM | –
COCCN(C)C(=O)CN1C(=O)N(c2cccc(C(F)(F)F)c2)C2=C(C(=O)CCC2)C1c1ccc(C#N)cc1S(C)(=O)=O (stereo not shown) [Example 62.7] | < 1 nM | –
COC1CCN(C(=O)CN2C(=O)N(c3cccc(C(F)(F)F)c3)C3=C(C(=O)CCC3)C2c2ccc(C#N)cc2S(C)(=O)=O)CC1 (stereo not shown) [Example 62.8] | 11.6 nM | –
CN(Cc1cnn(C)c1)C(=O)CN1C(=O)N(c2cccc(C(F)(F)F)c2)C2=C(C(=O)CCC2)C1c1ccc(C#N)cc1S(C)(=O)=O (stereo not shown) [Example 62.9] | 1.4 nM | –
N#Cc1ccc(C2C3=C(CCCC3=O)N(c3cccc(C(F)(F)F)c3)C(=O)N2C(=O)N[C@H]2CCC[C@@H]2O)cc1 (stereo partly shown) [Example 70.11] | < 1 nM | –
N#Cc1ccc(C2C3=C(CCCC3=O)N(c3cccc(C(F)(F)F)c3)C(=O)N2C(=O)N[C@H]2CCCC[C@@H]2O)cc1 (stereo partly shown) [Example 70.17] | 1.1 nM | –
CC(C)(CO)NC(=O)N1C(=O)N(c2cccc(C(F)(F)F)c2)C2=C(C(=O)CCC2)[C@H]1c1ccc(C#N)cc1S(C)(=O)=O [Example 75.13] | < 1 nM | –
CC(C)(O)CCNC(=O)N1C(=O)N(c2cccc(C(F)(F)F)c2)C2=C(C(=O)CCC2)[C@H]1c1ccc(C#N)cc1S(C)(=O)=O [Example 75.19] | < 1 nM | –
